Test results taken from patent US20250353891A1 (MEDIMMUNE LIMITED, priority 2022, published 2025).
Where two headings read alike, the source gives them in different places. Starred links: 1 amine or outer side, 2 acyl side, 3 side chain; linkers in the order of their positions; H or OH if unused. Non-standard residues stand in square brackets, D forms with d. Residues, ends and D or L forms follow the SMILES beside them. Groups on a side chain read outwards from the residue. *: point of attachment. C18 diacid = O=C(O)CCCCCCCCCCCCCCCCC(=O)*; γGlu = O=C(O)[C@H](CCC(=O)[*:2])N[*:1]; αMeF = C[C@](N)(Cc1ccccc1)C(=O)O; PEG2 = NCCOCCOCCC(=O)O; AEEA = NCCOCCOCC(=O)O; Aib = CC(C)(N)C(=O)O

Legend:
[1] = biological target: human GLP-1 receptor (hGLP-1R) (Homo sapiens, UniProt P43220); experiment: cAMP production (HTRF) in CHO cells expressing hGLP-1R; assay type: cell-based; design: expressed in transfected cells; settings: for % Relative Potency Ratio: % GLP-1R activity relative to GLP-1 / % GlucR activity relative to glucagon
Chain of human GLP-1 receptor (hGLP-1R) (P43220 24-463): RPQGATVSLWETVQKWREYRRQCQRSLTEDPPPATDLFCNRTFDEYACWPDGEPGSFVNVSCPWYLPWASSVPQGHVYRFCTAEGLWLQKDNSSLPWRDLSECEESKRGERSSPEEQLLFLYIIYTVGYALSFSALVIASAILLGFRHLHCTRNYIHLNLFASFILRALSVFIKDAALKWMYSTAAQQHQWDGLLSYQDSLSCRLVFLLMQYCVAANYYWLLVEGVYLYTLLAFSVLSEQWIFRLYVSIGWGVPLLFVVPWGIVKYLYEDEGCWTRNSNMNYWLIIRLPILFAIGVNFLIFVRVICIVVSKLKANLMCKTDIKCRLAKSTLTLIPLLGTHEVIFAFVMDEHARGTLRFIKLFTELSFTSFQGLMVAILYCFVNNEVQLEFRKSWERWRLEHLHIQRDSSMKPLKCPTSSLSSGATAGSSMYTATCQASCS
Procedure, shortened: (§1)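 Potency values represent EC50 from 4-parameter logistic curves of HTRF % Delta F signal. Receptor-expressing CHO cells (hGCGR 2×10^5 cells/mL, hGLP-1R 1×10^5 cells/mL) were exposed for 30 min at room temperature before two-step cAMP detection.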

[2] = biological target: human glucagon receptor (hGCGR) (Homo sapiens, UniProt P47871); experiment: cAMP production (HTRF) in CHO cells expressing hGCGR; assay type: cell-based; design: expressed in transfected cells; settings: cAMP, CHO cells, 0.1% BSA, geometric mean
Chain of human glucagon receptor (hGCGR) (P47871 26-477): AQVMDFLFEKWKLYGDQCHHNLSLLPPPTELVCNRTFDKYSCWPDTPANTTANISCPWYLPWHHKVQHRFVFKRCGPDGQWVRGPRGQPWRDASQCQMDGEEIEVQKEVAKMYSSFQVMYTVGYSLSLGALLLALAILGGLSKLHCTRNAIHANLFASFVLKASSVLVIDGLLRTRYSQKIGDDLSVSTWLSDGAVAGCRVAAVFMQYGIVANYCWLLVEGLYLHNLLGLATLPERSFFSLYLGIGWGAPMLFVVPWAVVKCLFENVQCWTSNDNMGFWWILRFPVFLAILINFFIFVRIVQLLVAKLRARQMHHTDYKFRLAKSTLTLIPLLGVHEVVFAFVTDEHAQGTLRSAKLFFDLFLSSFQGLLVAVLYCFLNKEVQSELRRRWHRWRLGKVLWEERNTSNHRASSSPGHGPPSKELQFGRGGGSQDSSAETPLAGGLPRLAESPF
Procedure, shortened: as §1

| Compound | EC50 ([1]; cAMP, CHO cells, 0.1% BSA, geometric mean, read-out: hGLP-1R EC50) [pM] | EC50 ([2]; read-out: hGluc-R EC50) [pM] | % Relative Potency Ratio [1] | EC50 ([1]; hGLP-1R EC50 (pM)) [pM] | EC50 ([2]; hGluc-R EC50 (pM)) [pM] |
| --- | --- | --- | --- | --- | --- |
| CC[C@H](C)[C@H](NC(=O)C(C)(C)NC(=O)[C@H](CCCCNC(=O)COCCOCCNC(=O)COCCOCCNC(=O)CC[C@H](NC(=O)CCCCCCCCCCCCCCCCC(=O)O)C(=O)O)NC(=O)[C@@H](NC(=O)[C@](C)(Cc1ccccc1)NC(=O)[C@H](CC(=O)O)NC(=O)[C@H](CCC(N)=O)NC(=O)[C@H](C)NC(=O)[C@H](C)NC(=O)[C@H](CCCNC(=N)N)NC(=O)[C@H](CO)NC(=O)[C@H](CC(=O)O)NC(=O)[C@H](CC(C)C)NC(=O)C(C)(C)NC(=O)[C@H](CCCCN)NC(=O)[C@H](CO)NC(=O)[C@@H](NC(=O)[C@H](CC(=O)O)NC(=O)[C@H](CO)NC(=O)[C@@H](NC(=O)[C@](C)(Cc1ccccc1)NC(=O)[C@H](CO)NC(=O)CNC(=O)[C@H](CCC(N)=O)NC(=O)[C@H](CO)NC(=O)[C@@H](N)Cc1c[nH]cn1)[C@@H](C)O)C(C)C)C(C)C)C(=O)N[C@@H](C)C(=O)N[C@@H](CC(N)=O)C(N)=O [Peptide 344] (H-HSQGS[αMeF]TSDVSK[Aib]LDSRAAQD[αMeF]VK([AEEA-AEEA-γGlu-C18 diacid])[Aib]IAN-NH2; N-terminus assumed) | 135 | > 26900 | – | – | – |
| CC[C@H](C)[C@H](NC(=O)[C@H](Cc1c[nH]c2ccccc12)NC(=O)[C@H](CCCCNC(=O)CC[C@H](NC(=O)CCCCCCCCCCCCCCCCCCC(=O)O)C(=O)O)NC(=O)[C@@H](NC(=O)[C@H](Cc1ccccc1)NC(=O)[C@H](CC(=O)O)NC(=O)[C@H](CCC(N)=O)NC(=O)[C@H](C)NC(=O)[C@H](C)NC(=O)[C@H](CCC(N)=O)NC(=O)[C@H](CO)NC(=O)[C@H](CC(=O)O)NC(=O)[C@H](CC(C)C)NC(=O)[C@](C)(Cc1ccccc1)NC(=O)[C@H](CCCCN)NC(=O)[C@H](CO)NC(=O)[C@@H](NC(=O)[C@H](CC(=O)O)NC(=O)[C@H](CO)NC(=O)[C@@H](NC(=O)[C@H](Cc1ccccc1)NC(=O)[C@@H](NC(=O)CNC(=O)[C@H](Cc1c[nH]cn1)NC(=O)C(C)(C)NC(=O)[C@@H](N)Cc1c[nH]cn1)[C@@H](C)O)[C@@H](C)O)C(C)C)C(C)C)C(=O)N[C@@H](C)C(=O)N[C@@H](CC(N)=O)C(=O)N[C@H](C(N)=O)[C@@H](C)O [Peptide 347] | – | – | 0.2 | 4970 | 597 |
| CC[C@H](C)[C@H](NC(=O)[C@H](Cc1c[nH]c2ccccc12)NC(=O)[C@H](CCCCNC(=O)COCCOCCNC(=O)COCCOCCNC(=O)CC[C@H](NC(=O)CCCCCCCCCCCCCCCCC(=O)O)C(=O)O)NC(=O)[C@@H](NC(=O)[C@H](Cc1ccccc1)NC(=O)[C@H](CC(=O)O)NC(=O)[C@H](CCC(N)=O)NC(=O)[C@H](C)NC(=O)[C@H](C)NC(=O)[C@H](CCC(N)=O)NC(=O)[C@H](CO)NC(=O)[C@H](CC(=O)O)NC(=O)[C@H](CC(C)C)NC(=O)[C@](C)(Cc1ccccc1)NC(=O)[C@H](CCCCN)NC(=O)[C@H](CO)NC(=O)[C@@H](NC(=O)[C@H](CC(=O)O)NC(=O)[C@H](CO)NC(=O)[C@@H](NC(=O)[C@](C)(Cc1ccccc1)NC(=O)[C@H](CO)NC(=O)CNC(=O)[C@H](CCC(N)=O)NC(=O)C(C)(C)NC(=O)[C@@H](N)Cc1c[nH]cn1)[C@@H](C)O)C(C)C)C(C)C)C(=O)N[C@@H](C)C(=O)N[C@@H](CC(N)=O)C(=O)N[C@H](C(N)=O)[C@@H](C)O [Peptide 348] (H-H[Aib]QGS[αMeF]TSDVSK[αMeF]LDSQAAQDFVK([AEEA-AEEA-γGlu-C18 diacid])WIANT-NH2) | – | – | – | 70.1 | 4110 |
| CC[C@H](C)[C@H](NC(=O)[C@H](Cc1c[nH]c2ccccc12)NC(=O)[C@H](CCCCNC(=O)COCCOCCNC(=O)COCCOCCNC(=O)CC[C@H](NC(=O)CCCCCCCCCCCCCCCCC(=O)O)C(=O)O)NC(=O)[C@@H](NC(=O)[C@H](Cc1ccccc1)NC(=O)[C@H](CC(=O)O)NC(=O)[C@H](CCC(N)=O)NC(=O)[C@H](C)NC(=O)[C@H](C)NC(=O)[C@H](CCC(N)=O)NC(=O)[C@H](CO)NC(=O)[C@H](CC(=O)O)NC(=O)[C@H](CC(C)C)NC(=O)[C@](C)(Cc1ccccc1)NC(=O)[C@H](CCCCN)NC(=O)[C@H](CO)NC(=O)[C@@H](NC(=O)[C@H](CC(=O)O)NC(=O)[C@H](CO)NC(=O)[C@@H](NC(=O)[C@](C)(Cc1ccccc1)NC(=O)[C@H](CO)NC(=O)CNC(=O)[C@H](Cc1c[nH]cn1)NC(=O)C(C)(C)NC(=O)[C@@H](N)Cc1c[nH]cn1)[C@@H](C)O)C(C)C)C(C)C)C(=O)N[C@@H](C)C(=O)N[C@@H](CC(N)=O)C(=O)N[C@H](C(=O)NCC(=O)NCC(N)=O)[C@@H](C)O [Peptide 350] (H-H[Aib]HGS[αMeF]TSDVSK[αMeF]LDSQAAQDFVK([AEEA-AEEA-γGlu-C18 diacid])WIANTGG-NH2; N-terminus assumed) | – | – | 8.6 | 88.6 | 384 |
| CC[C@H](C)[C@H](NC(=O)[C@H](Cc1c[nH]c2ccccc12)NC(=O)[C@H](CCCCNC(=O)CC[C@H](NC(=O)CCCCCCCCCCCCCCCCC(=O)O)C(=O)O)NC(=O)[C@@H](NC(=O)[C@H](Cc1ccccc1)NC(=O)[C@H](CC(=O)O)NC(=O)[C@H](CCC(N)=O)NC(=O)[C@H](C)NC(=O)[C@H](C)NC(=O)[C@H](CCC(N)=O)NC(=O)[C@H](CO)NC(=O)[C@H](CC(=O)O)NC(=O)[C@H](CC(C)C)NC(=O)[C@](C)(Cc1ccccc1)NC(=O)[C@H](CCCCN)NC(=O)[C@H](CO)NC(=O)[C@@H](NC(=O)[C@H](CC(=O)O)NC(=O)[C@H](CO)NC(=O)[C@@H](NC(=O)[C@](C)(Cc1ccccc1)NC(=O)[C@H](CO)NC(=O)CNC(=O)[C@H](Cc1c[nH]cn1)NC(=O)C(C)(C)NC(=O)[C@@H](N)Cc1c[nH]cn1)[C@@H](C)O)C(C)C)C(C)C)C(=O)N[C@@H](C)C(=O)N[C@@H](CC(N)=O)C(=O)N[C@H](C(N)=O)[C@@H](C)O [Peptide 351] (H-H[Aib]HGS[αMeF]TSDVSK[αMeF]LDSQAAQDFVK([γGlu-C18 diacid])WIANT-NH2) | – | – | 0.7 | 605 | 216 |
| CC[C@H](C)[C@H](NC(=O)[C@H](Cc1c[nH]c2ccccc12)NC(=O)[C@H](CCCCNC(=O)CCOCCOCCNC(=O)CCOCCOCCNC(=O)CC[C@H](NC(=O)CC[C@H](NC(=O)CCCCCCCCCCCCCCCCC(=O)O)C(=O)O)C(=O)O)NC(=O)[C@@H](NC(=O)[C@H](Cc1ccccc1)NC(=O)[C@H](CC(=O)O)NC(=O)[C@H](CCC(N)=O)NC(=O)[C@H](C)NC(=O)[C@H](C)NC(=O)[C@H](CCC(N)=O)NC(=O)[C@H](CO)NC(=O)[C@H](CC(=O)O)NC(=O)[C@H](CC(C)C)NC(=O)[C@](C)(Cc1ccccc1)NC(=O)[C@H](CCCCN)NC(=O)[C@H](CO)NC(=O)[C@@H](NC(=O)[C@H](CC(=O)O)NC(=O)[C@H](CO)NC(=O)[C@@H](NC(=O)[C@](C)(Cc1ccccc1)NC(=O)[C@H](CO)NC(=O)CNC(=O)[C@H](Cc1c[nH]cn1)NC(=O)C(C)(C)NC(=O)[C@@H](N)Cc1c[nH]cn1)[C@@H](C)O)C(C)C)C(C)C)C(=O)N[C@@H](C)C(=O)N[C@@H](CC(N)=O)C(=O)N[C@H](C(N)=O)[C@@H](C)O [Peptide 352] (H-H[Aib]HGS[αMeF]TSDVSK[αMeF]LDSQAAQDFVK([PEG2-PEG2-γGlu-γGlu-C18 diacid])WIANT-NH2; N-terminus assumed) | – | – | 1.4 | 193 | 139 |
| CC[C@H](C)[C@H](NC(=O)[C@H](Cc1c[nH]c2ccccc12)NC(=O)[C@H](CCCCNC(=O)CC[C@H](NC(=O)CC[C@H](NC(=O)CCOCCOCCNC(=O)CC[C@H](NC(=O)CC[C@H](NC(=O)CCCCCCCCCCCCCCCCC(=O)O)C(=O)O)C(=O)O)C(=O)O)C(=O)O)NC(=O)[C@@H](NC(=O)[C@H](Cc1ccccc1)NC(=O)[C@H](CC(=O)O)NC(=O)[C@H](CCC(N)=O)NC(=O)[C@H](C)NC(=O)[C@H](C)NC(=O)[C@H](CCC(N)=O)NC(=O)[C@H](CO)NC(=O)[C@H](CC(=O)O)NC(=O)[C@H](CC(C)C)NC(=O)[C@](C)(Cc1ccccc1)NC(=O)[C@H](CCCCN)NC(=O)[C@H](CO)NC(=O)[C@@H](NC(=O)[C@H](CC(=O)O)NC(=O)[C@H](CO)NC(=O)[C@@H](NC(=O)[C@](C)(Cc1ccccc1)NC(=O)[C@H](CO)NC(=O)CNC(=O)[C@H](Cc1c[nH]cn1)NC(=O)C(C)(C)NC(=O)[C@@H](N)Cc1c[nH]cn1)[C@@H](C)O)C(C)C)C(C)C)C(=O)N[C@@H](C)C(=O)N[C@@H](CC(N)=O)C(=O)N[C@H](C(N)=O)[C@@H](C)O [Peptide 353] (H-H[Aib]HGS[αMeF]TSDVSK[αMeF]LDSQAAQDFVK([γGlu-γGlu-PEG2-γGlu-γGlu-C18 diacid])WIANT-NH2; N-terminus assumed) | – | – | 1.0 | 311 | 163 |
| CC[C@H](C)[C@H](NC(=O)[C@H](Cc1c[nH]c2ccccc12)NC(=O)[C@H](CCCCNC(=O)CC[C@H](NC(=O)CCCCCCCCCCCCCCCCCCC(=O)O)C(=O)O)NC(=O)[C@@H](NC(=O)[C@H](Cc1ccccc1)NC(=O)[C@H](CC(=O)O)NC(=O)[C@H](CCC(N)=O)NC(=O)[C@H](C)NC(=O)[C@H](C)NC(=O)[C@H](CCC(N)=O)NC(=O)[C@H](CO)NC(=O)[C@H](CC(=O)O)NC(=O)[C@H](CC(C)C)NC(=O)[C@](C)(Cc1ccccc1)NC(=O)[C@H](CCCCN)NC(=O)[C@H](CO)NC(=O)[C@@H](NC(=O)[C@H](CC(=O)O)NC(=O)[C@H](CO)NC(=O)[C@@H](NC(=O)[C@](C)(Cc1ccccc1)NC(=O)[C@H](CO)NC(=O)CNC(=O)[C@H](Cc1c[nH]cn1)NC(=O)C(C)(C)NC(=O)[C@@H](N)Cc1c[nH]cn1)[C@@H](C)O)C(C)C)C(C)C)C(=O)N[C@@H](C)C(=O)N[C@@H](CC(N)=O)C(=O)N[C@H](C(N)=O)[C@@H](C)O [Peptide 354] | – | – | 1.6 | 1110 | 902 |
